Marks after values point to notes of the source that are not given here.
Key:
Format in all cases: in vivo, rat
[1] = tested on: acidified ethanol induced gastric damage; test: Effect of L-NAME (endogenous NO) on protection against acidified-ethanol induced gastric damage
Method: To study the mechanism of action of the compound to be tested, the involvement of endogenous NO in the development of acidified-ethanol induced gastric damage was also studied by intraperitoneal administration of L-N^G-nitroarginine methyl ester (L-NAME). L-NAME at a dose of 25 mg/kg was injected 15 minutes before the test compound. In subsequent experiments the test compound (p.o.), L-NAME (25 mg/kg i.p.), L-arginine (400 mg/kg i.v.) were administered 30, 45 or 60 minutes before oral administration of acidified-ethanol.
The connection between the cytoprotective effect of zinc hyaluronate and endogenic NO was studied by using an inhibitor of the nitrogen(II) oxide biosynthesis namely, N^G-nitro-L-arginine methyl ester (L-NAME). Considering that zinc hyaluronate(II) and zinc hyaluronate(M) had shown the same activity in acidified ethanol test, the latter was the only one tested in this experiment.

[2] = tested on: acidified ethanol induced gastric lesion; test: Inhibition of acidified-ethanol induced gastric lesions; conditions: for Inhibition / Lesion length/stomach mm ± S.E.M. / Lesion length/stomach: 30 min before acidified ethanol; for ED50 (dose giving 50% decrease in ulcer index): p.o., 30 min pretreatment
Method: Female RG-Wistar rats weighing between 120-150 g were used. Before experiments animals were fasted for 24 hours but received water ad libitum.
Experiments were carried out according to the technique similar to that described by A. Robert [Gastroenterology 77, […] (1979)].
Acidified ethanol (mixture of 50 ml of abs. ethanol and 1 ml of concentrated HCI) was used as strong irritants. Dose of acidified ethanol was 0.5 ml/100 g body weight with intragastric administration. Test compounds were given orally 30 minutes before the acidified ethanol challenge. When the duration of action of test compound was studied test material was administered 60 or 120 minutes earlier to the irritating effect induced by acidified-ethanol effect. One hour after the acidified ethanol treatment rats were sacrificed by cervical dislocation. Stomachs were removed and opened along the greater curvature and mildly washed down. The longitudinal hemorrhagic lesions were assayed by length.
ED50 value was defined as the dose that gave a 50% decrease in ulcer index.

[3] = tested on: stress-induced gastric lesion; test: Inhibition of stress (cold-restraint) induced gastric lesions; conditions: for Lesion score/stomach ± S.E.M.: 30 min before cold-restraint stress, score 0-3; for Inhibition: 30 min before stress; for Protection against cold-restraint induced gastric damage (in words): rat, in vivo
Method: Female RG Wistar rats weighing between 120-150 g were used. Before the experiments animals were fasted for 24 hours but received water ad libitum. Experiments were carried out according to the technique similar to that described by Senay et al., (1967). [Proc. Soc. Exp. Biol. Med.124,1221, (1967)].
Test compounds were given orally. 30 minutes later the animals were immobilized in plastic restraint boxes then placed into a refrigerator at 4° C.-8° C. temperature. Four hours later the animals were removed from both the refrigerator and the restraint boxes and one hour later they were sacrificed by cervical dislocation. The stomachs were removed, opened along the greater curvature and hemorrhagic lesions were scored by a zero to 3 scale: stomachs free from any damage were given a score of 0, stomachs with only a few hemorrhagic lesion were given a score of 1, stomachs with more lesion numbers than 10 were given a score of 2, and stomachs with a lot of lesions were characterized with a score of 3.
The ED50 were defined as the dose needed to decrease the score of gastric lesions by 50%.

[4] = tested on: indomethacin induced gastric lesion; test: Inhibition of indomethacin induced gastric lesion; conditions: for Protection of gastric mucosa against indomethacin (in words): rat, in vivo
Method: 2. Inhibition of Indomethacin Induced Gastric Lesion Female RG Wistar rats weighing between 120-150 g were used. Before the experiments animals were fasted for 24 hours but received water ad libitum. Test compounds were given orally, 30 minutes later the animals were treated subcutaneously with indomethacin at a dose of 40 mg/kg. Four hours after the irritating indomethacin administration the animals were killed by cervical dislocation. The stomachs were removed, opened along the greater curvature and the hemorrhagic lesions were counted on the glandular stomach.
ED50 value represents the dose which protects the stomach by 50 % from the damaging effect of indomethacin.

[5] = tested on: platelet activating factor (PAF) induced gastric lesion; test: Inhibition of gastric damage induced by platelet activating factor (PAF)
Method: Male, RG-Wistar rats weighing between 200-250 g were used. Before the experiments animals were fasted for 24 hours but received water ad libitum. Experiments were carried out according to the technique similar to that described by Wallace and Whittle (1986). [Br.J.Pharmac., 89,415, (1986)]. Animals were anaesthetized by intraperitoneal administration of urethane at a dose of 1 g/kg in a volume of 10 ml/kg. Femoral vein was then prepared and cannulated for administration of ulcerogenic PAF. After the surgery PAF was infused intravenously at a rate of 0.1 ml/min for ten minutes at a dose of 200 ng/kg/min. Test compounds were given 30 minutes before the PAF challenge. One hour after the infusion of PAF animals were sacrificed by cervical dislocation; their stomachs were removed and opened along the greater curvature. The hemorrhagic erosions were evaluated by a zero to three scoring system.

[6] = tested on: gastrointestinal motility; test: Gastrointestinal motility in the charcoal propulsion test; conditions: 100 mg/kg p.o.; for Propulsion of charcoal suspension mm ± S.E.M.: 30 min before charcoal, 60 min after charcoal
Method: Experiments were performed on female, RG-Wistar rats weighing 120-140 g, which were fasted for 24 hours but received water ad libitum.
The experimental procedure was carried out according to the technique similar to that described of P. A. Janssen and A. J. Jageneau [J. Pharm. Pharmacel. 9, 381 (1957)].
Test compounds were given orally at a dose of 100 mg/kg. Control animals received physiological saline solution instead of test compounds. 30 minutes later, the 5% (w/v) charcoal suspension was administered orally at a volume of 0.5 ml/animal. 60 minutes after the charcoal treatment the animals were sacrificed by cervical dislocation. The intestine from pylorus to cecum was removed, its lengths measured along with the distance traversed by the charcoal meal.
Motility was expressed as the ratio of length of charcoal suspension to the length of the whole intestine.

[7] = tested on: acetic acid induced chronic gastric ulcer; test: Inhibition of acetic acid induced chronic gastric ulcer; conditions: for Ulcerated area mm^2 ± S.E.M.: 1.0 mg/kg p.o. once a day, day 5 to 14 after surgery; for Effect on healing of acetic acid induced chronic ulcer (in words): rat, in vivo
Method: Female, RG Wistar rats weighing between 120-150 g were used. Before the surgery animals were deprived of food for 24 hours but received water ad libitum. The chronic gastric ulcer was induced by the injection of 25 μl/animal of 20% (v/v) acetic acid into the gastric wall under light ether anaesthesia according to the method similar to that described by Takagi et al. (1969). The oral treatment with the test compounds was started five days after the surgery and continued in a once-a-day regimen up to the 14th day. The animals were killed on the 15th day and their stomachs were dissected. The severity of ulceration was evaluated by the measurement of the diameter of the ulcers and the area affected was calculated. The healing effect was expressed as differences in percentage between the control and test group values.

[8] = L-NAME + zinc chloride, 25 + 25 mg/kg
[9] = Vehicle + zinc chloride, 0 + 25 mg/kg
[10] = 25 mg/kg p.o., 30 min before indomethacin
[11] = 100 mg/kg p.o., 30 min before indomethacin
[12] = 100 mg/kg p.o., 30 min before indomethacin 40 mg/kg s.c.
[13] = 1.0 mg/kg p.o., 30 min before indomethacin
[14] = 1.0 mg/kg p.o., 30 min before indomethacin 40 mg/kg s.c.
[15] = 10.0 mg/kg p.o., 30 min before indomethacin
[16] = 10.0 mg/kg p.o., 30 min before indomethacin 40 mg/kg s.c.
[17] = listed as Zink-hyaluronate (III)

| Molecule | Protection against cold-restraint induced gastric damage (in words) [3] | Protection of gastric mucosa against indomethacin (in words) [4] | Inhibition ([2]; 50 mg/kg p.o.) | Lesion length/stomach mm ± S.E.M. ([2]; 50 mg/kg p.o.) | Inhibition ([2]; 100 mg/kg p.o.) | Lesion length/stomach mm ± S.E.M. ([2]; 100 mg/kg p.o.) | Inhibition [4, 11] | Lesion number/stomach ± S.E.M. [4, 12] | Inhibition ([2]; 10 mg/kg p.o.) | ED50 (dose giving 50% decrease in ulcer index) [2] | Inhibition [4, 13] | Lesion number/stomach ± S.E.M. [4, 14] | Inhibition [4, 15] | Lesion number/stomach ± S.E.M. [4, 16] | Ulcerated area mm^2 ± S.E.M. [7] | Effect on healing of acetic acid induced chronic ulcer (in words) [7] | also measured |
| --- | --- | --- | --- | --- | --- | --- | --- | --- | --- | --- | --- | --- | --- | --- | --- | --- | --- |
| [Cl-].[Cl-].[Zn+2] [Zinc chloride, zinc chloride, reference compound] | only slight protective effects | do not provide any effect | – | – | – | – | – | – | – | – | – | – | – | – | – | – | Effect of L-NAME pretreatment on the gastroprotective activity (in words) ([1]; L-NAME 25 mg/kg): not influenced; Inhibition (compared with the vehicle + vehicle group) [1, 8]: 73.2%; Lesion length/stomach mm ± S.E.M. [1, 8]: 19.9 ± 5.5 mm; Inhibition (compared with the vehicle + vehicle group) [1, 9]: 89.2%; Lesion length/stomach mm ± S.E.M. [1, 9]: 8.0 ± 2.6 mm; Inhibition ([2]; 3.2 mg/kg p.o.): 43.7%; Lesion length/stomach mm ± S.E.M. ([2]; 3.2 mg/kg p.o.): 29.0 ± 4.0 mm; Inhibition ([2]; 6.4 mg/kg p.o.): 52.0%; Lesion length/stomach mm ± S.E.M. ([2]; 6.4 mg/kg p.o.): 24.7 ± 7.7 mm; Inhibition ([2]; 12.8 mg/kg p.o.): 87.0%; Lesion length/stomach mm ± S.E.M. ([2]; 12.8 mg/kg p.o.): 6.7 ± 1.6 mm; Lesion score/stomach ± S.E.M. ([3]; 25 mg/kg p.o.): 0.6 ± 0.2; Inhibition ([3]; 25 mg/kg p.o.): 40.0%; Inhibition [4, 10]: 0%; Lesion number/stomach ± S.E.M. [4, 10]: 15.1 ± 3.7 |
| sodium hyaluronate [reference compound] | only slight protective effects | do not provide any effect | 15.6% | 65.7 ± 9.8 mm | 35.9% | 49.9 ± 6.0 mm | 36.2% | 14.6 ± 3.3 | – | – | – | – | – | – | – | – | Inhibition ([2]; 100 mg/kg p.o., listed as sodium hyaluronate): 36%; Lesion score/stomach ± S.E.M. ([3]; 100 mg/kg p.o.): 0.9 ± 0.2; Inhibition ([3]; 100 mg/kg p.o.): 40.0%; Inhibition ([5]; 100 mg/kg p.o., 30 min before PAF): 0%; Lesion score/stomach ± S.E.M. ([5]; 100 mg/kg p.o., 30 min before PAF infusion, score 0-3): 2.6 ± 0.2^a; Protection against ulcerogenic effect of PAF (in words) ([5]; rat, in vivo): did not show such effect |
| zinc hyaluronate [Zinc hyaluronate (I)] | – | – | 66.7% | – | 93.4% | – | 90.4% | 0.8 ± 0.4 | 35.0% | 15.9 mg/kg | 43.4% | 4.7 ± 2.1 | 55.4% | 3.7 ± 1.9 | 10.0 ± 2.3 mm^2 | Neither zinc hyaluronate(I), nor zinc hyaluronate(III) had any effect | Inhibition ([2]; 1 mg/kg p.o.): 0%; Lesion length/stomach ([2]; 1 mg/kg p.o.): 95.3 ± 14.8; Lesion length/stomach ([2]; 10 mg/kg p.o.): 53.6 ± 7.3; Lesion length/stomach ([2]; 50 mg/kg p.o.): 27.4 ± 7.6; Lesion length/stomach ([2]; 100 mg/kg p.o.): 5.4 ± 2.0; Effect on the intestinal motility (in words) [6]: absence of change in activity; Propulsion of charcoal suspension mm ± S.E.M. ([6]; listed as Zink-hyaluronate (I)): 718 ± 5.6 mm; Ratio of charcoal suspension to the whole intestinal part ([6]; listed as Zink-hyaluronate (I)): 0.79 ± 0.07 |
| zinc hyaluronate [Zinc hyaluronate (III)] | – | – | 78.5% | 14.9 ± 4.5 mm | 85.7% | 9.9 ± 3.5 mm | 83.7% | 3.0 ± 1.4 | 0% | 33.2 mg/kg | 7.6% | 17.0 ± 4.5 | 57.6% | 7.9 ± 2.5 | 6.8 ± 0.8 mm^2 | Neither zinc hyaluronate(I), nor zinc hyaluronate(III) had any effect | Lesion length/stomach mm ± S.E.M. ([2]; 10 mg/kg p.o.): 98.4 ± 12.7 mm; Inhibition ([2]; 25 mg/kg p.o.): 37.0%; Lesion length/stomach mm ± S.E.M. ([2]; 25 mg/kg p.o.): 43.7 ± 7.7 mm; Propulsion of charcoal suspension mm ± S.E.M. [6, 17]: 68 ± 2.5 mm; Ratio of charcoal suspension to the whole intestinal part [6, 17]: 0.89 ± 0.03 |

— patent publication US6656921B1, “Use of zinc hyaluronate against peptic ulcer” (Richter Gedeon Vegyeszeti Gyar RT., priority 1997, dated 2003)
